# Reference: article PMC12064818, “A general assay platform to study protein pharmacology using ligand-dependent structural dynamics” (Nature Communications, 2025)
# “And” between values parts separate entries of the source, which are not always exact repeats. Identical values can stand only once. Like-named read-outs stand apart in the source and are kept apart here.
# Columns and labels:
# [1] = target: T1, E. coli Lig-N-HiBiT (DNA ligase) (Escherichia coli, UniProt P15042); conditions: for SDR assay data: 0.5 nM E. coli Lig-N-HiBiT; for SDR assay data / SDR response: Log [ATP]; for SDR response: replicates
# [2] = target: T1, E. coli Lig-N-HiBiT (DNA ligase); assay: biochemical
# [3] = target: T2, ABL1-N-HiBiT kinase domain (Homo sapiens, UniProt P00519); assay: SDR assay, ABL1-N-HiBiT
# T2 sequence (P00519 233-500): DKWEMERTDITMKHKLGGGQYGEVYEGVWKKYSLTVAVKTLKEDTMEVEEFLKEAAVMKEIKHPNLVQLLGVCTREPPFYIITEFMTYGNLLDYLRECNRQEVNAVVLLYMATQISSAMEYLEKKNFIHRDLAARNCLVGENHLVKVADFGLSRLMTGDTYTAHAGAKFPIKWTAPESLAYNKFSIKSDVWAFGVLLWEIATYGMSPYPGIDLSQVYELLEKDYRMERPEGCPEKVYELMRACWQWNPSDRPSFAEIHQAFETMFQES
# [4] = target: T3, T7 Lig-C-HiBiT (DNA ligase) (Escherichia phage T7, UniProt P00969); assay: SDR assay (aqueous ligand dispense), T7 Lig-C-HiBiT; conditions: for SDR assay data: 1 nM T7 Lig-C-HiBiT; for SDR assay data / SDR response: Log [ATP]; for SDR response: replicates
# T3 sequence (P00969 2-359): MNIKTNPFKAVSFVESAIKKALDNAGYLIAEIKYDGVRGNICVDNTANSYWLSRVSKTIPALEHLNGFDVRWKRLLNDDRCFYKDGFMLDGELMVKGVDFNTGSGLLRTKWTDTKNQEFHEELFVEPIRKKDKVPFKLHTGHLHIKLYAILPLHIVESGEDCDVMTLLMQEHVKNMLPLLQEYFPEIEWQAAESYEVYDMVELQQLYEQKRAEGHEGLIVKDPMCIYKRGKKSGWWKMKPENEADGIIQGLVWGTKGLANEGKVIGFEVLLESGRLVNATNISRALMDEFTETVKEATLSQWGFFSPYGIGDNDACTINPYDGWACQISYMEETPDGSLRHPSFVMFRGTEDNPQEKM
# [5] = target: iPGM; conditions: surface plasmon resonance kinetics; cited from earlier work
# [6] = target: B. malayi iPGM-C-HiBiT (Brugia malayi, UniProt Q4VWF8); assay: biochemical
# [7] = target: FLuc-N-HiBiT (firefly luciferase) (Photinus pyralis, UniProt P08659, form not given/L550V); assay: SDR assay, FLuc-N-HiBiT; conditions: for 10 nM FLuc-N-HiBiT + 10 mM ATP, Mean / 10 nM FLuc-N-HiBiT No ATP, Mean: Log [PTC124]
# [8] = E. coli Lig-N-HiBiT (0.5 nM), ligand 100 µM
# [9] = T7 Lig-C-HiBiT (1 nM), ligand 100 µM
# FLuc-N-HiBiT (firefly luciferase), sequence (P08659 2-550 L550V, form open): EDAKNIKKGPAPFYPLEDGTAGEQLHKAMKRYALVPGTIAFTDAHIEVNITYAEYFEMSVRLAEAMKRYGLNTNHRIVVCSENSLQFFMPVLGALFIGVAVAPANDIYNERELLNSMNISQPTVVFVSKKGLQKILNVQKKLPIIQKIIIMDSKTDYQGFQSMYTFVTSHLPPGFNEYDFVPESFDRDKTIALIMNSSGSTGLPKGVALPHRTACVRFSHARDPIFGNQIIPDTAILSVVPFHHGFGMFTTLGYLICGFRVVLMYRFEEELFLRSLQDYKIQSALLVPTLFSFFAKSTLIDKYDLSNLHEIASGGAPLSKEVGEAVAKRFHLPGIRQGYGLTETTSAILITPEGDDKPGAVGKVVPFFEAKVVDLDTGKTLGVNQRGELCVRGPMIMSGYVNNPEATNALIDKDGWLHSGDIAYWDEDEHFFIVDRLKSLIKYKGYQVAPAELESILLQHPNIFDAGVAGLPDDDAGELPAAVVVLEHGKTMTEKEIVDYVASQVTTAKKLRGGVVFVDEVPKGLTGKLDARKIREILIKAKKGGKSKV
# T1 sequence (P15042 2-671): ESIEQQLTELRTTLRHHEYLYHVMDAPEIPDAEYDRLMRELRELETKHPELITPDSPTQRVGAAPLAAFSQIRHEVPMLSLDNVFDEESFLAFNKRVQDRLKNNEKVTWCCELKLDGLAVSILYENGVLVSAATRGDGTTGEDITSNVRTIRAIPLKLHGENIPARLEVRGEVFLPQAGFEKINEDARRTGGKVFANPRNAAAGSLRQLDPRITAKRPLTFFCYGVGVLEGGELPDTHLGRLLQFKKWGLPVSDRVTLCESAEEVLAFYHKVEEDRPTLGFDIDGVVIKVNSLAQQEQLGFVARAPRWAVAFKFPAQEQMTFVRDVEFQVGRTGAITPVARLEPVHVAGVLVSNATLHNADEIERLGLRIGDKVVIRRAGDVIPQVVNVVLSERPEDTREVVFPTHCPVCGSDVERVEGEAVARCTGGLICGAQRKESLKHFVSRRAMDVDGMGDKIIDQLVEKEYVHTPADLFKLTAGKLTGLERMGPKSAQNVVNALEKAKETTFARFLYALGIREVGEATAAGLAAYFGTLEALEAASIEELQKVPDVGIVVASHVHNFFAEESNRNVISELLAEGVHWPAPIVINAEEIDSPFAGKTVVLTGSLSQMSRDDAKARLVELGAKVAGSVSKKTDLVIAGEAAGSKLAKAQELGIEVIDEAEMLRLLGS
# B. malayi iPGM-C-HiBiT, sequence (Q4VWF8 2-515): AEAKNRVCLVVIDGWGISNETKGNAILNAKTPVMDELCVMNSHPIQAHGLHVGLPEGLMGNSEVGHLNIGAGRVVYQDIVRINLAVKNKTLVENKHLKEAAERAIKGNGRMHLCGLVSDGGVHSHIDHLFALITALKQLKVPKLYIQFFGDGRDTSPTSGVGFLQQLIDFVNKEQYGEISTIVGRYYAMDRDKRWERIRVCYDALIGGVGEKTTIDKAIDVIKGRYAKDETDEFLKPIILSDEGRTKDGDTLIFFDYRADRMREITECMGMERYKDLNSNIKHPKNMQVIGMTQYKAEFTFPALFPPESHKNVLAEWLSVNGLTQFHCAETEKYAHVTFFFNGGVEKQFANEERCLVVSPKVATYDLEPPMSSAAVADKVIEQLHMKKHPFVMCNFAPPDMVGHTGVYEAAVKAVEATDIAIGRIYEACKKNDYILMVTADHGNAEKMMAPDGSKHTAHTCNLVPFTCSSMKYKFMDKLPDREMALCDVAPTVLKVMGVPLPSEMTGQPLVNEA
smiles,measurement,setting,value
Nc1ncnc2c1ncn2[C@@H]1O[C@H](COP(=O)(O)OP(=O)(O)OP(=O)(O)O)[C@@H](O)[C@H]1O [ATP],SDR assay data,[1]; M -2.85,49.3 and 51.1 and 44.4
same,SDR assay data,[1]; M -3.15,28.9 and 34.6 and 36.9
same,SDR assay data,[1]; M -3.45,8.9 and 17.7 and 9.6
same,SDR assay response (in words),[1]; E. coli Lig-N-HiBiT,weak though reproducible SDR output
same,SDR assay statistics Ave RLU,[1]; [8],315.5 RLU
same,SDR assay statistics S:B,[1]; [8],1.1
same,SDR assay statistics S:N,[1]; [8],0.6
same,SDR assay statistics Z’,[1]; [8],-6.013
same,max resp,"[1]; E. coli Lig-N-HiBiT, maximum response",48.3
same,SDR response,[1]; M -2.85,49.3 and 51.1 and 44.4
same,SDR response,[1]; M -3.15,28.9 and 34.6 and 36.9
same,SDR response,[1]; M -3.45,8.9 and 17.7 and 9.6
same,SDR response,[1]; M -3.75,3.6 and 9.8 and 15.1
same,SDR response,[1]; M -4.05,1.5 and 7.7 and 15.7
same,SDR response,[1]; M -4.35,0.051 and 11.3 and 4.7
same,SDR response,[1]; M -4.65,0.8 and 3.9 and 8.7
same,SDR response,[1]; M -4.95,-0.949 and 1.5 and 6.8
same,SDR response,[1]; M -5.25,-4.0 and 5.1 and 9.7
same,SDR response,[1]; M -5.55,-8.9 and 4.7 and 2.7
same,SDR response,[1]; M -5.86,-3.0 and -2.8 and 4.9
same,SDR response,[1]; M -6.16,-9.9 and -0.326
same,SDR response,[1]; M -6.46,-6.9 and 3.7
same,SDR response,[1]; M -6.76,-8.7 and 1.0 and 4.2
same,EC50,[2],≥ 100 µM
same,EC50,[3],24.5 µM
same,EC50,[4],≥ 100 µM
same,SDR assay data,[4]; M -2.85,216.5 and 209.6 and 219.5
same,SDR assay data,[4]; M -3.15,141.4 and 163.1 and 159.6
same,SDR assay data,[4]; M -3.45,83.0 and 105.1 and 112.1
same,SDR assay data,[4]; M -3.75,54.1 and 71.7 and 73.7
same,SDR assay data,[4]; M -4.35,22.4 and 27.8 and 30.1
same,SDR assay data,[4]; M -4.65,18.5 and 22.1 and 22.3
same,SDR assay data,[4]; M -4.95,14.4 and 13.8
same,SDR assay data,[4]; M -5.25,9.3 and 8.9
same,SDR assay data,[4]; M -5.55,9.2 and 6.3
same,SDR assay data,[4]; M -6.16,7.3 and 4.5
same,SDR assay data,[4]; M -6.46,6.2 and 3.9 and 5.5
same,SDR response,[4]; M -2.85,216.5 and 209.6 and 219.5
same,SDR response,[4]; M -3.15,141.4 and 163.1 and 159.6
same,SDR response,[4]; M -3.45,83.0 and 105.1 and 112.1
same,SDR response,[4]; M -3.75,54.1 and 71.7 and 73.7
same,SDR response,[4]; M -4.05,18.5 and 46.9 and 44.7
same,SDR response,[4]; M -4.35,22.4 and 27.8 and 30.1
same,SDR response,[4]; M -4.65,18.5 and 22.1 and 22.3
same,SDR response,[4]; M -4.95,14.4 and 13.8
same,SDR response,[4]; M -5.25,9.3 and 8.9
same,SDR response,[4]; M -5.55,9.2 and 6.3
same,SDR response,[4]; M -5.86,6.9 and 3.3 and 6.8
same,SDR response,[4]; M -6.16,7.3 and 4.5
same,SDR response,[4]; M -6.46,6.2 and 3.9 and 5.5
same,SDR response,[4]; M -6.76,4.6 and 1.8 and 4.9
same,SDR assay response (in words),[4]; T7 Lig-C-HiBiT,strong SDR signal
same,SDR assay statistics Ave RLU,[4]; [9],70.8 RLU
same,SDR assay statistics S:B,[4]; [9],1.4
same,SDR assay statistics Z’,[4]; [9],-0.186
same,max resp,"[4]; T7 Lig-C-HiBiT, maximum response",215.2
CC(C)C[C@H](NC(=O)[C@H](Cc1ccc(O)cc1)NC(=O)[C@@H]1CSCC(=O)N[C@H](Cc2ccc(O)cc2)C(=O)N[C@@H](CC(=O)O)C(=O)N[C@@H](Cc2ccc(O)cc2)C(=O)N2CCC[C@H]2C(=O)NCC(=O)N[C@@H](CC(=O)O)C(=O)N[C@@H](Cc2ccc(O)cc2)C(=O)N1)C(=O)N[C@@H](Cc1ccc(O)cc1)C(=O)NCC(=O)N[C@H](C(=O)N[C@@H](CS)C(=O)NCC(N)=O)[C@@H](C)O [Ce-2],Kd,[5],0.038 nM
same,EC50,[6],0.0407 µM
"O=C(O)c1cccc(-c2noc(-c3ccccc3F)n2)c1 [PTC124, reference compound]","pSDR50, FLuc-N-HiBiT (10 nM)",[7]; 0 μM ATP,6.64 ± 0.05
same,"pSDR50, FLuc-N-HiBiT (10 nM)",[7]; 10 μM ATP,8.07 ± 0.05
same,"10 nM FLuc-N-HiBiT + 10 mM ATP, Mean",[7]; M (SDR) -4.48,41609.1 RLU
same,"10 nM FLuc-N-HiBiT No ATP, Mean",[7]; M (SDR) -4.48,44446.2 RLU
same,"10 nM FLuc-N-HiBiT + 10 mM ATP, Mean",[7]; M (SDR) -4.96,42409.7 RLU
same,"10 nM FLuc-N-HiBiT No ATP, Mean",[7]; M (SDR) -4.96,44381.0 RLU
same,"10 nM FLuc-N-HiBiT + 10 mM ATP, Mean",[7]; M (SDR) -5.44,42866.9 RLU
same,"10 nM FLuc-N-HiBiT No ATP, Mean",[7]; M (SDR) -5.44,43085.6 RLU
same,"10 nM FLuc-N-HiBiT + 10 mM ATP, Mean",[7]; M (SDR) -5.91,43432.3 RLU
same,"10 nM FLuc-N-HiBiT No ATP, Mean",[7]; M (SDR) -5.91,42891.6 RLU
same,"10 nM FLuc-N-HiBiT + 10 mM ATP, Mean",[7]; M (SDR) -6.39,43449.2 RLU
same,"10 nM FLuc-N-HiBiT No ATP, Mean",[7]; M (SDR) -6.39,36744.1 RLU
same,"10 nM FLuc-N-HiBiT + 10 mM ATP, Mean",[7]; M (SDR) -6.87,43724.9 RLU
same,"10 nM FLuc-N-HiBiT No ATP, Mean",[7]; M (SDR) -6.87,28974.8 RLU
same,"10 nM FLuc-N-HiBiT + 10 mM ATP, Mean",[7]; M (SDR) -7.35,42289.0 RLU
same,"10 nM FLuc-N-HiBiT No ATP, Mean",[7]; M (SDR) -7.35,26642.9 RLU
same,"10 nM FLuc-N-HiBiT + 10 mM ATP, Mean",[7]; M (SDR) -7.82,38396.4 RLU
same,"10 nM FLuc-N-HiBiT No ATP, Mean",[7]; M (SDR) -7.82,23375.2 RLU
same,"10 nM FLuc-N-HiBiT + 10 mM ATP, Mean",[7]; M (SDR) -8.30,32370.1 RLU
same,"10 nM FLuc-N-HiBiT No ATP, Mean",[7]; M (SDR) -8.30,21721.8 RLU
same,"10 nM FLuc-N-HiBiT + 10 mM ATP, Mean",[7]; M (SDR) -8.78,29426.2 RLU
same,"10 nM FLuc-N-HiBiT No ATP, Mean",[7]; M (SDR) -8.78,22027.4 RLU
same,"10 nM FLuc-N-HiBiT + 10 mM ATP, Mean",[7]; M (SDR) -9.25,28882.5 RLU
same,"10 nM FLuc-N-HiBiT No ATP, Mean",[7]; M (SDR) -9.25,22062.2 RLU
same,"10 nM FLuc-N-HiBiT + 10 mM ATP, Mean",[7]; M (SDR) -9.73,28374.1 RLU
same,"10 nM FLuc-N-HiBiT No ATP, Mean",[7]; M (SDR) -9.73,21924.6 RLU
same,"10 nM FLuc-N-HiBiT + 10 mM ATP, Mean",[7]; M (SDR) -10.21,28052.8 RLU
same,"10 nM FLuc-N-HiBiT No ATP, Mean",[7]; M (SDR) -10.21,22527.7 RLU
same,"10 nM FLuc-N-HiBiT + 10 mM ATP, Mean",[7]; M (SDR) -10.69,27509.0 RLU
same,"10 nM FLuc-N-HiBiT No ATP, Mean",[7]; M (SDR) -10.69,22231.2 RLU
same,"10 nM FLuc-N-HiBiT + 10 mM ATP, Mean",[7]; M (SDR) -11.16,27726.0 RLU
same,"10 nM FLuc-N-HiBiT No ATP, Mean",[7]; M (SDR) -11.16,21138.2 RLU
same,"10 nM FLuc-N-HiBiT + 10 mM ATP, Mean",[7]; M (SDR) -11.64,27670.3 RLU
same,"10 nM FLuc-N-HiBiT No ATP, Mean",[7]; M (SDR) -11.64,21494.9 RLU
